Literature values as cited in patent US20070294068A1, “LINE-WALKING RECURSIVE PARTITIONING METHOD FOR EVALUATING MOLECULAR INTERACTIONS AND QUESTIONS RELATING TO TEST OBJECTS” (priority 2006, published 2007).

System: 2C9
Settings: literature reports

| Structure (SMILES) | reported inhibition of 2C9 |
| --- | --- |
| CCc1ccc(CCOc2ccc(CC3SC(=O)NC3=O)cc2)nc1 (centres unmarked) [pioglitazone] | weak inhibitor of the *2 allylic variant not the native enzyme |
| Nc1ccc(S(=O)(=O)Nc2ncccn2)cc1 [sulfadiazine] | only a weak inhibitor |
